Columns and labels:
hCA IX = hCA IX (Homo sapiens, UniProt Q16790); assay: stopped-flow CO2 hydrase assay, hCA IX; format: biochemical; settings: incubation time 6 h, mean of three experiments
Description: (§1) The target coumarins 5a–p and 7a–c were examined for their CA inhibitory actions towards the ubiquitous CA I and II (cytosolic) as well as the tumour-associated CA IX and XII isozymes by the use of a stopped-flow CO2 hydrase assay, using acetazolamide (AZA) as a reference compound.
(§2) The experimental procedures utilised for CA inhibitory assay of the target compounds were carried out as described earlier, and presented in the Supplementary Materials.

hCA I = hCA I (Homo sapiens, UniProt P00915); assay: stopped-flow CO2 hydrase assay, hCA I; format: biochemical; settings: incubation time 6 h, mean of three experiments
Description: as §1, §2

hCA II = hCA II (Homo sapiens, UniProt P00918); assay: stopped-flow CO2 hydrase assay, hCA II; format: biochemical; settings: incubation time 6 h, mean of three experiments
Description: as §1, §2

HCT-116 cells = assay: MTT antiproliferative assay, HCT-116; format: cell-based, human; settings: mean ± SEM of three experiments; for inhibition at 10 µM / inhibition at 100 µM: Homo sapiens; for inhibition at 10 µM: HCT-116, HCT116, 10 µM, read-out: % Growth inhibition HCT116 10 µM; for inhibition at 100 µM: HCT-116, HCT116, 100 µM, read-out: % Growth inhibition HCT116 100 µM
Description: (§3) Encouraged by the favourable selectivity profile of ureidocoumarins 5a–p and amidocoumarins 7a–c towards hCA IX and hCA XII, they were further examined for their prospective antiproliferative activity against human colorectal (HCT-116) and breast (MCF-7) cancer cell lines, adopting the MTT assay.
(§4) The evaluation of anticancer activity of the target compounds was conducted by MTT assay adopting the literature procedure.

MCF-7 cells = assay: MTT antiproliferative assay, MCF-7; format: cell-based, human; settings: mean ± SEM of three experiments; for inhibition at 10 µM / inhibition at 100 µM: Homo sapiens; for inhibition at 10 µM: MCF7, MCF7, 10 µM, read-out: % Growth inhibition MCF7 10 µM; for inhibition at 100 µM: MCF7, MCF7, 100 µM, read-out: % Growth inhibition MCF7 100 µM
Description: as §3, §4

hCA XII = hCA XII (Homo sapiens, UniProt O43570); assay: stopped-flow CO2 hydrase assay, hCA XII; format: biochemical; settings: incubation time 6 h, mean of three experiments
Description: as §1, §2

Chain of hCA XII (O43570 25-354): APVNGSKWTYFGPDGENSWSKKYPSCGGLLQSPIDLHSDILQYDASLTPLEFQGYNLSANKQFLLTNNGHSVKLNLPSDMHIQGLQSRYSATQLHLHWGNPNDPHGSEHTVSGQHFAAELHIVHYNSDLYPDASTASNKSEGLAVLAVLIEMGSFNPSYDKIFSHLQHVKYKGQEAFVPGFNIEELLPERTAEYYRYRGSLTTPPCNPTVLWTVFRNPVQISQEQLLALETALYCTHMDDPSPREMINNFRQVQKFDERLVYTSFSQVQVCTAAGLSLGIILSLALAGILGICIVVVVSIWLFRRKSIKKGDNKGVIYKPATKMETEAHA
Chain of hCA I (P00915 whole entry): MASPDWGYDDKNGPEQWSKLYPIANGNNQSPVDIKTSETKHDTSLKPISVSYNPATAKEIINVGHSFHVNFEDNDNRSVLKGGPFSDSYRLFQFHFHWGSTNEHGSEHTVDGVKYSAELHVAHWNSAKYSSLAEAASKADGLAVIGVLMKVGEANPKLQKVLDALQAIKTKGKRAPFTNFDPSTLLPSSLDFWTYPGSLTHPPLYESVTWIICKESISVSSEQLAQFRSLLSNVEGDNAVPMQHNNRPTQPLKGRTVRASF

SMILES	Ki (hCA IX)	Ki (hCA I)	Ki (hCA II)	inhibition at 10 µM (HCT-116 cells)	inhibition at 100 µM (HCT-116 cells)	melting point	inhibition at 10 µM (MCF-7 cells)	inhibition at 100 µM (MCF-7 cells)	Ki (hCA XII)	% Growth inhibition HCT116 10 µM (HCT-116 cells; HCT116, 10 µM)	% Growth inhibition HCT116 100 µM (HCT-116 cells; HCT116, 100 µM)	% Growth inhibition MCF7 10 µM (MCF-7 cells; MCF7, 10 µM)	% Growth inhibition MCF7 100 µM (MCF-7 cells; MCF7, 100 µM)
O=C(Nc1cccc(C(F)(F)F)c1)Nc1ccc2oc(=O)ccc2c1 [Compound 5a, 1-(2-Oxo-2H-chromen-6-yl)-3-(3-(trifluoromethyl)phenyl)urea]	45.9 nM	> 100000 nM	> 100000 nM	8 ± 4.8%	21.9 ± 4.6%	252 to 254 °C	3.7 ± 1.9%	34.7 ± 4.4%	26.2 nM				
O=C(Nc1ccc(C(F)(F)F)cc1)Nc1ccc2oc(=O)ccc2c1 [Compound 5b]	71.4 nM	> 100000 nM	> 100000 nM	7.6 ± 2.8%	77 ± 4%	276 to 278 °C	4.2 ± 1.4%	77.8 ± 5.1%	38.5 nM				
O=C(Nc1ccc(F)cc1)Nc1ccc2oc(=O)ccc2c1 [Compound 5c, 1-(4-Fluorophenyl)-3-(2-oxo-2H-chromen-6-yl)urea]	41.5 nM	> 100000 nM	> 100000 nM	10.9 ± 1.6%	31.3 ± 4.6%	249 to 250 °C	9.5 ± 4.2%	13.5 ± 4.3%	40.2 nM				
O=C(Nc1ccc(Br)cc1)Nc1ccc2oc(=O)ccc2c1 [Compound 5d, 1-(4-Bromophenyl)-3-(2-oxo-2H-chromen-6-yl)urea]	70.6 nM	> 100000 nM	> 100000 nM	25.4 ± 2.7%	31.7 ± 3.5%	257 to 258 °C	18.2 ± 3.2%	18.5 ± 4.5%	51.1 nM				
CCCCc1ccc(NC(=O)Nc2ccc3oc(=O)ccc3c2)cc1 [Compound 5e, 1-(4-Butylphenyl)-3-(2-oxo-2H-chromen-6-yl)urea]	54.7 nM	> 100000 nM	> 100000 nM	20.1 ± 2.5%	65 ± 6%	223 to 224 °C	38.2 ± 2.5%	46.4 ± 4.9%	95.1 nM				
CCCCOc1ccc(NC(=O)Nc2ccc3oc(=O)ccc3c2)cc1 [Compound 5f, 1-(4-Butoxyphenyl)-3-(2-oxo-2H-chromen-6-yl)urea]	32.5 nM	> 100000 nM	> 100000 nM	15 ± 5.2%	67.7 ± 0.6%	234 to 235 °C	32.3 ± 2.6%	46.9 ± 3.4%	81.8 nM				
O=C(Nc1ccc(Cl)c(C(F)(F)F)c1)Nc1ccc2oc(=O)ccc2c1 [Compound 5g, 1-(4-Chloro-3-(trifluoromethyl)phenyl)-3-(2-oxo-2H-chromen-6-yl)urea]	66.4 nM	> 100000 nM	> 100000 nM	15.2 ± 4.4%	90.5 ± 1.4%	253 to 255 °C	10 ± 2.4%	92.3 ± 0.6%	29.4 nM				
O=C(Nc1ccc(F)c(Cl)c1)Nc1ccc2oc(=O)ccc2c1 [Compound 5h, 1-(3-Chloro-4-fluorophenyl)-3-(2-oxo-2H-chromen-6-yl)urea]	24.1 nM	> 100000 nM	> 100000 nM	11.9 ± 1.5%	92.3 ± 1.2%	232 to 233 °C	16.9 ± 5.3%	91.2 ± 1%	10.3 nM				
O=C(Nc1cc(C(F)(F)F)cc(C(F)(F)F)c1)Nc1ccc2oc(=O)ccc2c1 [Compound 5i, 1-(3,5-Bis(trifluoromethyl)phenyl)-3-(2-oxo-2H-chromen-6-yl)urea]	14.7 nM	> 100000 nM	> 100000 nM		> 90%		> 50%	> 90%	5.9 nM	70.4 ± 2.6%	94.2 ± 1.1%	51.5 ± 3.1%	93.9 ± 0.4%
O=C(Nc1cc(Cl)cc(Cl)c1)Nc1ccc2oc(=O)ccc2c1 [Compound 5j, 1-(3,5-Dichlorophenyl)-3-(2-oxo-2H-chromen-6-yl)urea]	19.9 nM	> 100000 nM	> 100000 nM	19.2 ± 3.8%	91.9 ± 1.1%	252 to 253 °C	6.1 ± 2%	91.1 ± 0.6%	23.4 nM				
Cc1cc(C)cc(NC(=O)Nc2ccc3oc(=O)ccc3c2)c1 [Compound 5k, 1-(3,5-Dimethylphenyl)-3-(2-oxo-2H-chromen-6-yl)urea]	42.9 nM	> 100000 nM	> 100000 nM	14.5 ± 2.7%	87.4 ± 1.8%	238 to 239 °C	33.2 ± 3.2%	66.7 ± 5%	27.4 nM				
O=C(Nc1ccc2oc(=O)ccc2c1)Nc1ccc(Cl)cc1Cl [Compound 5l, 1-(2,4-Dichlorophenyl)-3-(2-oxo-2H-chromen-6-yl)urea]	50.6 nM	> 100000 nM	> 100000 nM	2.6 ± 1.8%	6.7 ± 1.7%	291 to 292 °C	5.9 ± 2.7%	6.6 ± 2.5%	56.7 nM				
O=C(Nc1ccc2oc(=O)ccc2c1)Nc1ccc(F)cc1F [Compound 5m, 1-(2,4-Difluorophenyl)-3-(2-oxo-2H-chromen-6-yl)urea]	25.6 nM	> 100000 nM	> 100000 nM	25.7 ± 2.3%	26.1 ± 4%		15.2 ± 1.4%	22.7 ± 3.3%	7.2 nM				
Cc1cc(Cl)ccc1NC(=O)Nc1ccc2oc(=O)ccc2c1 [Compound 5n, 1-(4-Chloro-2-methylphenyl)-3-(2-oxo-2H-chromen-6-yl)urea]	28.4 nM	> 100000 nM	> 100000 nM	4.9 ± 2.5%	20.5 ± 3.5%		16.7 ± 4.9%	19.9 ± 1.2%	43.1 nM				
Cc1cccc(Cl)c1NC(=O)Nc1ccc2oc(=O)ccc2c1 [Compound 5o, 1-(2-Chloro-6-methylphenyl)-3-(2-oxo-2H-chromen-6-yl)urea]	19.2 nM	> 100000 nM	> 100000 nM	9.7 ± 4%	78.6 ± 3.7%		30.3 ± 1.5%	72.8 ± 5.5%	13.8 nM				
O=C(Nc1ccc2oc(=O)ccc2c1)Nc1c(Br)cc(F)cc1Br [Compound 5p, 1-(2,6-Dibromo-4-fluorophenyl)-3-(2-oxo-2H-chromen-6-yl)urea]	72.8 nM	> 100000 nM	> 100000 nM	14.1 ± 3%	75.2 ± 5.8%		21.4 ± 3%	79.5 ± 2.4%	50.4 nM				

Reference: article PMC9897768, “Discovery of new 6-ureido/amidocoumarins as highly potent and selective inhibitors for the tumour-relevant carbonic anhydrases IX and XII” (Journal of Enzyme Inhibition and Medicinal Chemistry, 2023)
